From patent US20090247532A1, “Crystalline polymorph of sitagliptin phosphate and its preparation” (Mae De Ltd., priority 2008, published 2009)
Like-named read-outs stand apart in the source and are kept apart here.

Legend:
[1] = Stability studies of Form V bulk material and tablets on storage, stability-indicating HPLC; type: physicochemical; details: bulk material
Protocol: The stability of Form V of sitagliptin phosphate bulk material and tablets is assessed by storing samples for up to 12 weeks at 25° C./60% RH or up to 3 weeks at 40° C./75% RH. Changes are monitored using a stability-indicating HPLC method. Results were calculated by normalized peak area (npa). Degradants are identified by comparison of their relative retention times against impurity standards.

[2] = Thermal phase stability of Form V on heating; type: physicochemical; details: heating up to 41° C.
Description: Additionally, Form V has lower water content, good material flow characteristic and better chemical stability.

[3] = cited from earlier work; for stability of the form (in words): as reported in US 2006/0287528 or US 2007/0021430; for conversion into crystalline sitagliptin phosphate monohydrate: US 2007/0021430
[4] = Solubility of sitagliptin phosphate in water and polar organic solvents; type: physicochemical
Description: In a preferred aspect, Form V of sitagliptin phosphate may be prepared by slurring starting material, crude or pure sitagliptin phosphate, anhydrate or solvate, which can be obtained according to the procedures described in U.S. patent application 2005/0032804 with a polar organic solvent or a mixture of two or more polar organic solvents under heat. The sitagliptin phosphate is soluble in water, but not soluble in polar organic solvents. The preferred polar organic solvent is methanol or acetone. The concentration of sitagliptin phosphate within the solution may range from about 0.1% by weight to the saturation point. This concentration will, of course, vary depending upon the temperature at which the co-solvent solution is held, with warmer temperatures generally allowing for the preparation of more concentrated solutions of sitagliptin phosphate. Preferably, the concentration (w/w %) of sitagliptin phosphate starting material in solution is about 0.5-15%, preferably about 1-10%, more preferably about 1.5-5%. The volume ratio of water to methanol or acetone is about 1:0.1-200, preferably about 1:2-30, more preferably about 1:3-10, most preferably about 1:4-6. […]

In the case of `N[C@@H](CC(=O)N1CCn2c(nnc2C(F)(F)F)C1)Cc1cc(F)c(F)cc1F.O=P(O)(O)O` [Form V, (2R)-4-oxo-4-[3-(trifluoromethyl)-5,6-dihydro[1,2,4]triazolo[4,3-α]pyrazin-7(8H)yl]-1-(2,4,5-trifluorophenyl)butan-2-amine dihydrogenphosphate], the “time for which polymorph (phase) and chemical stability was demonstrated” value ([1]; elevated temperature and humidity (40° C./75%)) is reported as “over 3 weeks”, the “time stable with respect to polymorphic form (phase) stability and formation of known and unknown degradants” value ([1]; stored under normal conditions of temperature and humidity) is reported as “over 3 months” and the “phase transformation on heating” value [2] is reported as “does not undergo a phase transformation”.
For `N[C@@H](CC(=O)N1CCn2c(nnc2C(F)(F)F)C1)Cc1cc(F)c(F)cc1F.O=P(O)(O)O` [Form II], the “stability of the form (in words)” value [3] is given as “metastable” and the “time to convert to anhydrous Form I or Form III or mixtures thereof” value ([3]; at about 45° C., US 2006/0287528) is given as “about 2 hours”.
For `N[C@@H](CC(=O)N1CCn2c(nnc2C(F)(F)F)C1)Cc1cc(F)c(F)cc1F.O=P(O)(O)O` [Form I], the “conversion on grinding or compaction” value ([3]; grinding or compaction, US 2006/0287528) is given as “can be converted into Form III”.
For `N[C@@H](CC(=O)N1CCn2c(nnc2C(F)(F)F)C1)Cc1cc(F)c(F)cc1F.O=P(O)(O)O` [Form III], the “temperature below which the form is stable” value ([3]; US 2006/0287528) is listed as “below 34 °C”.
In the case of `N[C@@H](CC(=O)N1CCn2c(nnc2C(F)(F)F)C1)Cc1cc(F)c(F)cc1F.O=P(O)(O)O` [ethanol solvate], the “stability of the form (in words)” value [3] is listed as “not a stable form”.
In the case of `N[C@@H](CC(=O)N1CCn2c(nnc2C(F)(F)F)C1)Cc1cc(F)c(F)cc1F.O=P(O)(O)O` [sitagliptin phosphate, dihydrogenphosphate salt of (2R)-4-oxo-4-[3-(trifluoromethyl)-5,6-dihydro[1,2,4]triazolo[4,3-α]pyrazin-7(8H)yl]-1-(2,4,5-trifluorophenyl)butan-2-amine], the “solubility in polar organic solvents” value ([4]; polar organic solvents (e.g. methanol, acetone)) is reported as “not soluble” and the solubility in water ([4]; water) is reported as “soluble”.
In the case of `N[C@@H](CC(=O)N1CCn2c(nnc2C(F)(F)F)C1)Cc1cc(F)c(F)cc1F.O=P(O)(O)O` [Form IV], the “conversion into crystalline sitagliptin phosphate monohydrate” value ([3]; ambient conditions) is given as “slowly”, the “stability of the form (in words)” value [3] is given as “metastable” and the “conversion into crystalline sitagliptin phosphate monohydrate” value ([3]; high relative humidity (98%) at room temperature) is given as “rapidly”.
